Data reported in paper PMC12386283, “Elucidating the Complex Structural and Molecular Mechanisms Driving P-Glycoprotein-Mediated Transport of Cardiac Glycosides” (International Journal of Molecular Sciences, 2025).

Legend:
[1] = molecular target: T1, P-glycoprotein (wild-type mouse Pgp, MDR3) (Mus musculus, UniProt P21447); experiment: in vitro; conditions: mouse, pH 7.4
Protocol: (§1) Overexpression of wild-type mouse Pgp (MDR3) was achieved by using genetically engineered strains of Pichia pastoris with a 6X histidine tag. The cells were cultured in glycerol media, and methanol was used to induce the overexpression of Pgp at the Bioexpression and Fermentation Facility (BFF), University of Georgia, Athens, GA, USA. A repeated cycle of freezing using liquid nitrogen, blending, and thawing was used to lyse the Pgp-expressing P. pastoris cells. The protein was purified using affinity chromatography with nickel-nitrilotriacetic acid (Ni-NTA) resin (Thermo Fisher Scientific, Waltham, MA, USA). DDM was used to solubilize the protein, and the solution was concentrated using Amicon Ultra-15 100 kDa cut-off filters (EMD Millipore, Billerica, MA, USA). The concentration of purified protein was measured at 280 nm using a calculated extinction coefficient of 1.28 per mg mL^−1 on a Nanodrop (DeNovix, Wilmington, DE, USA). […] The purified DDM-solubilized Pgp was aliquoted and stored at −80 °C for future analysis.
(§2) Approximately 40 µL of DDM-solubilized Pgp was dialyzed for two hours against HEPES buffer (20 mM HEPES, 100 mM NaCl, 5 mM MgCl2, 2 mM DTT, pH 7.4) to remove any remnants of the detergent, DDM. The dialyzed protein was mixed with 4 mg mL^−1 of the extruded liposomes and incubated on ice for at least one hour to allow Pgp to integrate into the liposomes. To remove any additional detergent and further facilitate Pgp integration into the liposome, the solution was dialyzed for a second time for two hours in HEPES buffer to form proteoliposomes, and the concentration of Pgp reconstituted in liposomes was determined using the Bio-Rad DC Protein assay. Finally, the solution was aliquoted and stored at −80 °C for future use.
The intrinsic tryptophan residues in the protein can be selectively excited and emitted at 295 nm and 330 nm wavelengths, respectively. The binding of the drug to the protein can alter the spatial arrangement encountered by the tryptophan residue(s) and thereby regulate the fluorescence intensity of the protein [52]. […] Proteoliposomes diluted to 1 µM in Chifflet buffer containing 2 mM DTT were titrated against varying concentrations of drugs. The intrinsic protein fluorescence was measured at 330 nm upon excitation at 295 nm using an Olis DM 45 spectrophotometer (Olis Corporation, Bogart, GA, USA). To nullify the effect of Rayleigh bands on the observed spectra, a 10 nm band-pass filter was inserted on the excitation and emission paths of the spectrophotometer. The drug-induced quenching of intrinsic Pgp fluorescence was corrected (Fcorrected) for factors such as dilution, background fluorescence, and inner filter effects using the equation mentioned below (Equation (2)).(2) Fcorrected=F−B10^εexbex+εembemQ/2 where Fcorrected = Drug-induced quenching of intrinsic Pgp fluorescence; F = Emitted intrinsic Pgp fluorescence at 330 nm; [Q] = Concentration of drug; εex and εem = Excitation and emission extinction coefficients, respectively; bex and bem = Path lengths of excitation (0.4 mm) and emission (10 mm) wavelengths, respectively; and B = Background fluorescence measured from drug and solvent.
The resulting quenching curves were fit using a modified Stern-Volmer equation (Equation (3)), as follows:(3) Fcorrected=FOcorrected/1+KsvQ+Funquenched where Fcorrected = The corrected fluorescence; F0(corrected) = Fluorescence recorded in the absence of drug; [Q] = Concentration of drug; Ksv = Stern–Volmer constant; and F(unquenched) = unquenched fluorescence.

Pgp = conditions: MDCK cell lines overexpressing Pgp; cited from earlier work
[2] = molecular target: T1, P-glycoprotein (wild-type mouse Pgp, MDR3); experiment: in vitro; conditions: mouse, pH 7.4; remark: listed apart in the source
Protocol: as §1, with “USA).” for “USA). The concentration of purified protein was measured at 280 nm using a calculated extinction coefficient of 1.28 per mg mL^−1 on a Nanodrop (DeNovix, Wilmington, DE, USA).”
Pgp was reconstituted into liposomes as previously described. Briefly, liposomes comprising 80% (w/v) Avanti Escherichia coli total lipid extract and 20% (w/v) cholesterol were dissolved in chloroform to achieve a final concentration of 10 mg mL^−1, and the volume was adjusted to 10 mL. […] The solution was subjected to ten cycles of freeze–thaw using liquid nitrogen and a water bath (67 °C), resulting in the formation of liposomes with varying sizes, and extruded eleven times in a LIPEX extruder (Northern Lipids, Burnaby, BC, Canada) to produce identical-sized liposomes, using a 400 nm cut-off filter.
as §2
The Chifflet method is a colorimetric method that measures the amount of free inorganic phosphate (Pi) through the formation of ammonium molybdate and Pi complex, which produces a strong absorbance at 850 nm. The absorbance was measured on a 96-well plate using a CLARIOstar microplate reader (BMG Labtech, Ortenberg, Germany). […] The final concentrations of the proteoliposome and ATP were maintained at 50 nM and 3.2 mM, respectively. Orthovanadate was used as a control and run in parallel to the samples. Finally, the kinetic curves for ATPase activity were fit to a modified Michaelis-Menten equation (Equation (1)). Igor 6.2 Pro software (Wavemetrics, Tigard, OR, USA) was used for data analysis.(1) V=VmaxS/Km+S+Vbasal where V = Rate of ATP hydrolysis; Vmax = Maximum velocity of ATP hydrolysis; [S] = Substrate concentration; Km = Michaelis–Menten constant; and Vbasal = basal ATPase activity.

T1 sequence (P21447 whole entry): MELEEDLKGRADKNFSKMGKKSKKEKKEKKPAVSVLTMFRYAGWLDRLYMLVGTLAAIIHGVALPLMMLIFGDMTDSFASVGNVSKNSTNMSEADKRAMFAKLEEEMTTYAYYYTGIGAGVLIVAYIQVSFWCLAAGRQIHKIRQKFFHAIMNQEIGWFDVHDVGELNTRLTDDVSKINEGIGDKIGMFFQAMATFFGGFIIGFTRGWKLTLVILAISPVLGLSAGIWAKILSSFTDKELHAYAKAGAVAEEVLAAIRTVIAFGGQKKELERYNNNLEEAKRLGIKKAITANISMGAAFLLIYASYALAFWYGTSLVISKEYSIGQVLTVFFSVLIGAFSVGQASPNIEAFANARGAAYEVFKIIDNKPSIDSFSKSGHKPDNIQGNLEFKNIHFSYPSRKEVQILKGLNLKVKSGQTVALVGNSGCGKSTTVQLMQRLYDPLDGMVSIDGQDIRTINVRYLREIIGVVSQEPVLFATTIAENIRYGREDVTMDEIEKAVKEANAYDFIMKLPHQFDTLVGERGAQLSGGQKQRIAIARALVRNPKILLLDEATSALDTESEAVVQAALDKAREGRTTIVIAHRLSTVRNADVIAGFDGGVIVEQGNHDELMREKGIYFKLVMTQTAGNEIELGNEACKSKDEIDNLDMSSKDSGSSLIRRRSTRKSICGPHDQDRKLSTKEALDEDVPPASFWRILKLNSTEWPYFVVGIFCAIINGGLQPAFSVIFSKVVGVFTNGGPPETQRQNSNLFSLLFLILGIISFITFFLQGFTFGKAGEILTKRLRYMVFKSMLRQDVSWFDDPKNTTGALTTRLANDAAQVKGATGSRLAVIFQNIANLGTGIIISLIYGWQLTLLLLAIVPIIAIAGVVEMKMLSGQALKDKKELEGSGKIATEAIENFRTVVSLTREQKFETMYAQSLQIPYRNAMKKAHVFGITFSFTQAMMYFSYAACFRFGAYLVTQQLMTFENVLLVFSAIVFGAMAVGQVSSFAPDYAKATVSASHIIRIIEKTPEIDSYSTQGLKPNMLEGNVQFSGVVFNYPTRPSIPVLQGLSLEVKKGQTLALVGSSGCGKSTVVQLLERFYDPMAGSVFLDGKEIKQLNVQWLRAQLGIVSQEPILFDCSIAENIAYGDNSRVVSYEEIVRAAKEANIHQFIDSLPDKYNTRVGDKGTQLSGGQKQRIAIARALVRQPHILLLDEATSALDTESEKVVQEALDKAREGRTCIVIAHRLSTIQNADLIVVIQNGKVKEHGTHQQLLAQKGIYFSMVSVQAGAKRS

| SMILES | Kd [1] [µM] | Intracellular accumulation in Pgp-overexpressing cells (Pgp) | Km [2] [µM] |
| --- | --- | --- | --- |
| C[C@]12CC[C@H](O)C[C@H]1CC[C@@H]1[C@@H]2C[C@@H](O)[C@]2(C)[C@@H](C3=CC(=O)OC3)CC[C@]12O [Digoxigenin, 3β,12β,14-Trihydroxy-5β,20(22)-cardenolide] | 10.16 ± 0.01 | – | – |
| C[C@]12CC[C@H](O)C[C@H]1CC[C@@H]1[C@@H]2CC[C@]2(C)[C@@H](C3=CC(=O)OC3)CC[C@]12O [Digitoxigenin, (3β,5β)-3,14-Dihydroxy-card-20(22)-enolide] | – | no significant difference | 67.6 ± 19.8 |
